Data set [1] concerns the target T1, Alpha-2A adrenergic receptor (Homo sapiens) (UniProt P08913).
T1 sequence (whole entry): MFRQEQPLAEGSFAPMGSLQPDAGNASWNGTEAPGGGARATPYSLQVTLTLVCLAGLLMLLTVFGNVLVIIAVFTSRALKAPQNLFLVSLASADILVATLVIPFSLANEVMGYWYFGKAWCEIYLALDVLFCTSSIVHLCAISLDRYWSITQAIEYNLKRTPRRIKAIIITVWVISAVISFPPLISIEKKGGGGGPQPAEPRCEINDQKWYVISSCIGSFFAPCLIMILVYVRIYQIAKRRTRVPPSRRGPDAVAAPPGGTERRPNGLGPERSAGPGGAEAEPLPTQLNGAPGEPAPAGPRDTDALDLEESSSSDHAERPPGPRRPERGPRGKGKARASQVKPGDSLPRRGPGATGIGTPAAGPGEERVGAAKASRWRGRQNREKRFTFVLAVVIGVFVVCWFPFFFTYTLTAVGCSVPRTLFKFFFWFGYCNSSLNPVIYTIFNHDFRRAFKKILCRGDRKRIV
In words: Adrenergic alpha2A Eurofins-Panlabs radioligand binding assay. Conditions: Compound concentration 10.0 uM; call rule not given here. On the set-up: ligand concentration 1 nM, non-specific ligand with concentration 10 µM WB-4101, incubation time 60 min, incubation temperature 25 °C.

The target of data set [2] is Tyrosine-protein kinase BTK (Homo sapiens) (UniProt Q06187). Briefly: BTK Kinase screen. Conditions: Compound concentration 1.0 uM.
Chain of Tyrosine-protein kinase BTK (Homo sapiens) (Q06187 whole entry): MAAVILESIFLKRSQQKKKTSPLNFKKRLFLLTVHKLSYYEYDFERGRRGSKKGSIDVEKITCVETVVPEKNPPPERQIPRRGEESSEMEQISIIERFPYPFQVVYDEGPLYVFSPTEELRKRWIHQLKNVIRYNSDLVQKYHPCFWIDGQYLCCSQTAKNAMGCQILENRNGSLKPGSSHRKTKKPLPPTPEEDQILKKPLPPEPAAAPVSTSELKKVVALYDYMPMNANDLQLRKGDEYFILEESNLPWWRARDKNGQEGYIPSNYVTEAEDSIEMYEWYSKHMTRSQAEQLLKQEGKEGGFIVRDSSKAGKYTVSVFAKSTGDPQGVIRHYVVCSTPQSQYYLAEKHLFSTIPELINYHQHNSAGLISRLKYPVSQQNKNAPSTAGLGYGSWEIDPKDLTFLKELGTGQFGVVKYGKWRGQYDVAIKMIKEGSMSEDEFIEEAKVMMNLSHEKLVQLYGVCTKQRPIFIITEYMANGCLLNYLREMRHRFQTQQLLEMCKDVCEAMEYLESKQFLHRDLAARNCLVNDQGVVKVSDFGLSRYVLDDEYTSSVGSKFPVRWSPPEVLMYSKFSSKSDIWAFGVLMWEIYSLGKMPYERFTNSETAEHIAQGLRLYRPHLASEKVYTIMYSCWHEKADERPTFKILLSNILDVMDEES
Data set [3] deals with Ephrin type-A receptor 2 (Homo sapiens) (UniProt P29317). In words: EPHA2 Kinase screen. Conditions: Compound concentration 1.0 uM.
Chain of Ephrin type-A receptor 2 (Homo sapiens) (P29317 whole entry): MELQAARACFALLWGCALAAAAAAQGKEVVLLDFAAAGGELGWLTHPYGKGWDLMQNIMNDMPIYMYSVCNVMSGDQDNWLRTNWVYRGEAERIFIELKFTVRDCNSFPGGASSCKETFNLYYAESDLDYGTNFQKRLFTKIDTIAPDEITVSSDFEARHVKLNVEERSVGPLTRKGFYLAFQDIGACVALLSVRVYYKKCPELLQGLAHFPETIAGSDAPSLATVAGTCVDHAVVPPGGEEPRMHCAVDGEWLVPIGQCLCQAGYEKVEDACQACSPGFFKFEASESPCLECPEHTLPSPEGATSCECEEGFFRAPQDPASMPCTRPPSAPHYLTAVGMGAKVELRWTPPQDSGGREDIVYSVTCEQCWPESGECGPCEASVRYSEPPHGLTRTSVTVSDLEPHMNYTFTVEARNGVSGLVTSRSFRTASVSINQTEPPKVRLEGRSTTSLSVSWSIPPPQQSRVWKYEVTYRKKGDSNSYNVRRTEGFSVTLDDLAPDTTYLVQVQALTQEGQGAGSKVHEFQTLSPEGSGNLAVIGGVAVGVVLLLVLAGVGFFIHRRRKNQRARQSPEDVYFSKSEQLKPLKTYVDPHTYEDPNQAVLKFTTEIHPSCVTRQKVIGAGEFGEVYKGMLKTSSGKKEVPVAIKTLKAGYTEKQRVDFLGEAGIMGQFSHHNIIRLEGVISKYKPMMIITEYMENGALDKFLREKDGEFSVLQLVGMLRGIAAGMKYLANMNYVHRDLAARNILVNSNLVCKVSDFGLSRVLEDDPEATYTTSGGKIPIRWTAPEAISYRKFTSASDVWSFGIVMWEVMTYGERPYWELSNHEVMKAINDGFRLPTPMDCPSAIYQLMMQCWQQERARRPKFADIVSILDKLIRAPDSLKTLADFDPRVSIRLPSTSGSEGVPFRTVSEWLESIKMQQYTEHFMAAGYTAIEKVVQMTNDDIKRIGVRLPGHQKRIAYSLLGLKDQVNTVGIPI
For data set [4], the target named is T2, Inhibitor of nuclear factor kappa-B kinase subunit epsilon (Homo sapiens) (UniProt Q14164).
T2 sequence (whole entry): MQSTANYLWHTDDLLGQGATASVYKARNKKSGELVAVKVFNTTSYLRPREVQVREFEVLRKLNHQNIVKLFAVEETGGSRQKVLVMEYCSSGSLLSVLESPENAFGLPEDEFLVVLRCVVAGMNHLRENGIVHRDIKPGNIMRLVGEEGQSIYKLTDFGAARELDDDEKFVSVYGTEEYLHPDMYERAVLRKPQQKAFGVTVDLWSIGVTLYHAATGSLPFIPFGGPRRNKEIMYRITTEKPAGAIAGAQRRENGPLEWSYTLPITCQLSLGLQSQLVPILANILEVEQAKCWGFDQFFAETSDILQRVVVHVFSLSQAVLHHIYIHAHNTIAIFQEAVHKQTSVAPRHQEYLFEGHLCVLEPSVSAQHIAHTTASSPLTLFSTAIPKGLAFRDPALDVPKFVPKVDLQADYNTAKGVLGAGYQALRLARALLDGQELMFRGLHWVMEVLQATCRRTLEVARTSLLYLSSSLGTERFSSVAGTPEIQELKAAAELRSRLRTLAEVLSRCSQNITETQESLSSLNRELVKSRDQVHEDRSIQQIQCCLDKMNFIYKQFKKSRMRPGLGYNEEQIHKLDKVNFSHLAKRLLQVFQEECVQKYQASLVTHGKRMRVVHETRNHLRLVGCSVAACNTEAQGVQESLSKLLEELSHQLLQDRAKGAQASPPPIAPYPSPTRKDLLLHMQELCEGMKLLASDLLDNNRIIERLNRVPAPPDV
Briefly: IKBKE (IKK epsilon) Kinase screen. Conditions: Compound concentration 1.0 uM.

In data set [5] the target is T3, Serine/threonine-protein kinase Nek9 (Homo sapiens) (UniProt Q8TD19).
T3 sequence (whole entry): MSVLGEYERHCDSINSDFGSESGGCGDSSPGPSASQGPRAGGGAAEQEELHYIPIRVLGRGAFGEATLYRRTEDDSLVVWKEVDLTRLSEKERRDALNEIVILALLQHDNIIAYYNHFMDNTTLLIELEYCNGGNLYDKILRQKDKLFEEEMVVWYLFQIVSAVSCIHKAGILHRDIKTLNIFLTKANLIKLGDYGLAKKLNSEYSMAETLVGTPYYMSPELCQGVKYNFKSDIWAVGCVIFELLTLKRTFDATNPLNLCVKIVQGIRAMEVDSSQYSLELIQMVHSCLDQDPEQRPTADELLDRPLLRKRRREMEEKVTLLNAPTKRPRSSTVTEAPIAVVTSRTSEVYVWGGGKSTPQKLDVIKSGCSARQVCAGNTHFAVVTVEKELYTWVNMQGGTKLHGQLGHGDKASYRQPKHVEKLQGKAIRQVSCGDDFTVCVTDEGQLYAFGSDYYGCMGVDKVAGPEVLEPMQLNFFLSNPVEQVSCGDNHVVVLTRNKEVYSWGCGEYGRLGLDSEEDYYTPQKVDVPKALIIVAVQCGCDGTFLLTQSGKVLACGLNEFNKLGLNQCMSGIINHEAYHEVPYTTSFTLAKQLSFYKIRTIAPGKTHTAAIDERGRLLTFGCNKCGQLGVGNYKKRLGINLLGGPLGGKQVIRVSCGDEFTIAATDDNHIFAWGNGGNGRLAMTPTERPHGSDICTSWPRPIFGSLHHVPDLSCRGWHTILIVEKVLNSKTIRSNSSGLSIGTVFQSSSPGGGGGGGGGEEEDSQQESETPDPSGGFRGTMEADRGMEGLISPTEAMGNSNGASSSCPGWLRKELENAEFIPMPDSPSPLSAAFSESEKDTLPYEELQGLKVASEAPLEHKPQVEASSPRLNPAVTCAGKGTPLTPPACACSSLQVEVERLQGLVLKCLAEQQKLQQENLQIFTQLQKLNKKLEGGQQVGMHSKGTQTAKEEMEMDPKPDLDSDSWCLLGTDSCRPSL
Briefly: NEK9 Kinase screen. As to conditions: Compound concentration 1.0 uM.

For data set [6], the target named is Serine/threonine-protein kinase pim-2 (Homo sapiens) (UniProt Q9P1W9). Briefly: PIM2 Kinase screen. As to conditions: Compound concentration 1.0 uM.
Data set [7] deals with SRSF protein kinase 2 (Homo sapiens) (UniProt P78362). Briefly: SRPK2 Kinase screen. Conditions: Compound concentration 1.0 uM.
Chain of SRSF protein kinase 2 (Homo sapiens) (P78362 whole entry, looked up): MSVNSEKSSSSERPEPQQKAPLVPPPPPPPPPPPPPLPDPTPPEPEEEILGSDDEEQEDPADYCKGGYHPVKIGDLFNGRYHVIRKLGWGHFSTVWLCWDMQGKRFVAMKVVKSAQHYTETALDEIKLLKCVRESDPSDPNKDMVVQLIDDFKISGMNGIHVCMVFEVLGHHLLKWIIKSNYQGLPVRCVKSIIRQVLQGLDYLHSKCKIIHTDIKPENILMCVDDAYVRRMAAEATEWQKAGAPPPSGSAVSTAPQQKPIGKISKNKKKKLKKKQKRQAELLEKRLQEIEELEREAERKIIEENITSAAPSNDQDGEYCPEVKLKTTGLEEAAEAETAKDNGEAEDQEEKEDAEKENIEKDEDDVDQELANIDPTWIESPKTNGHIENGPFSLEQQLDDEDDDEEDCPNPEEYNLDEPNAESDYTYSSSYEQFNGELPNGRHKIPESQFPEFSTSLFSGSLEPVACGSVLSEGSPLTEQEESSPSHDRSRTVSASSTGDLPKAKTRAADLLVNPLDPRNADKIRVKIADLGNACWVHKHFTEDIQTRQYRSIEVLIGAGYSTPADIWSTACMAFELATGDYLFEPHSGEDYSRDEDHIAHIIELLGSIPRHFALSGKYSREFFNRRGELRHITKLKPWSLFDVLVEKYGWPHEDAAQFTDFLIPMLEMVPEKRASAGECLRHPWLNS
Data set [8] has as its target Tyrosine-protein kinase Yes (Homo sapiens) (UniProt P07947). In words: YES1 Kinase screen. Conditions: Compound concentration 1.0 uM.
The target in data set [9] is MAO-B (amine oxidase [flavin-containing] B) (Homo sapiens, UniProt P27338). Briefly: Inhibition of Monoamine Oxidase MAO-B at compound concentration of 10.0 uM in the Eurofins-Panlabs enzyme assay (Eurofins_assay_140120). On the set-up: substrate with concentration 50 uM Kynuramine, incubation time 60 min, incubation temperature 37 C. Conditions: recombinant human MAO-B expressed in insect Hi5 cells, probe kynuramine (50 uM), compound concentration 10 uM.

The target of the next data set is Caspase-8 (Homo sapiens) (UniProt Q14790). In words: Peptidase, CASP8 (Caspase 8) Eurofins-Panlabs enzyme assay. Conditions: Compound concentration 10.0 uM.
Chain of Caspase-8 (Homo sapiens) (Q14790 217-374 limits assumed): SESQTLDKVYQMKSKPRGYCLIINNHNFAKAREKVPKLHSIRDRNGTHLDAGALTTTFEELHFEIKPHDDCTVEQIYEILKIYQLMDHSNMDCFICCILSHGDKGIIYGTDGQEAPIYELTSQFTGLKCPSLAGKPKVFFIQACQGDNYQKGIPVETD
Chain of Caspase-8 (Homo sapiens) (Q14790 385-479 limits assumed): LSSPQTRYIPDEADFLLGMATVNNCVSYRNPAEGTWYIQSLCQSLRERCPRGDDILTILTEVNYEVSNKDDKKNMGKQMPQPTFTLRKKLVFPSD
Data set [10] concerns the target Nociceptin receptor (Homo sapiens) (UniProt P41146). Briefly: Orphanin ORL1 Eurofins-Panlabs radioligand binding assay. As to conditions: Compound concentration 10.0 uM.
For another data set, the species on record is Homo sapiens. Briefly: Somatostatin sst2 Eurofins-Panlabs radioligand binding assay. On the set-up: ligand concentration 0.03 nM. Conditions: Compound concentration 10.0 uM.
The target of data set [11] is Adenosine receptor A2a (Homo sapiens) (UniProt P29274). Conditions: Compound concentration 10.0 uM.
The target of data set [12] is Endothelin receptor type B (Homo sapiens) (UniProt P24530). As to conditions: Compound concentration 10.0 uM.
Chain of Endothelin receptor type B (Homo sapiens) (P24530 whole entry): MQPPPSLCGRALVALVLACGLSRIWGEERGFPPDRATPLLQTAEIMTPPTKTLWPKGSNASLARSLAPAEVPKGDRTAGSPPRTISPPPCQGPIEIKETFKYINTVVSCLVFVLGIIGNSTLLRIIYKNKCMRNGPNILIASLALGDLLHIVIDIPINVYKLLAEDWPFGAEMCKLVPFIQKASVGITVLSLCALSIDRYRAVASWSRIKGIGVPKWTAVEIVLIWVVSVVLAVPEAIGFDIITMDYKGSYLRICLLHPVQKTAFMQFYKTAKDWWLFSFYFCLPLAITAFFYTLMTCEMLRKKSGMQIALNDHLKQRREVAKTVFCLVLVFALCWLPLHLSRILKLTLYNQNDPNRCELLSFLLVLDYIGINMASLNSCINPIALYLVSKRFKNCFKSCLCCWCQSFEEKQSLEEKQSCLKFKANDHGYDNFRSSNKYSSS
Data set [13] addresses Gamma-aminobutyric acid type B receptor subunit 1 (Homo sapiens) (UniProt Q9UBS5). As to conditions: Rattus norvegicus; Compound concentration 10.0 uM.
For data set [14], the target named is Leucine-rich repeat serine/threonine-protein kinase 2 (Homo sapiens, UniProt Q5S007). In words: Cellular assay monitoring dephosphorylation of pSer935 LRRK2.

Chain of Nociceptin receptor (Homo sapiens) (P41146 whole entry): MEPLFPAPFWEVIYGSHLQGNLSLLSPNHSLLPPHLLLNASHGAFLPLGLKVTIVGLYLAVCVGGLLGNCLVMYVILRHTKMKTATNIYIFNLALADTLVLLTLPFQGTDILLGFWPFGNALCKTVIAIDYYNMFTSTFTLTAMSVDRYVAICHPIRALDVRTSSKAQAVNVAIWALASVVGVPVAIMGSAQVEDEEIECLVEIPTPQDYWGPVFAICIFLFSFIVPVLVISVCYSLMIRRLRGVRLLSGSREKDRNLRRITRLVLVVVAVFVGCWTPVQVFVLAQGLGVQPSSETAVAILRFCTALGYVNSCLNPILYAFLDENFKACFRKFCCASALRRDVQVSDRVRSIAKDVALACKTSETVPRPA
Chain of Tyrosine-protein kinase Yes (Homo sapiens) (P07947 2-543 limits assumed): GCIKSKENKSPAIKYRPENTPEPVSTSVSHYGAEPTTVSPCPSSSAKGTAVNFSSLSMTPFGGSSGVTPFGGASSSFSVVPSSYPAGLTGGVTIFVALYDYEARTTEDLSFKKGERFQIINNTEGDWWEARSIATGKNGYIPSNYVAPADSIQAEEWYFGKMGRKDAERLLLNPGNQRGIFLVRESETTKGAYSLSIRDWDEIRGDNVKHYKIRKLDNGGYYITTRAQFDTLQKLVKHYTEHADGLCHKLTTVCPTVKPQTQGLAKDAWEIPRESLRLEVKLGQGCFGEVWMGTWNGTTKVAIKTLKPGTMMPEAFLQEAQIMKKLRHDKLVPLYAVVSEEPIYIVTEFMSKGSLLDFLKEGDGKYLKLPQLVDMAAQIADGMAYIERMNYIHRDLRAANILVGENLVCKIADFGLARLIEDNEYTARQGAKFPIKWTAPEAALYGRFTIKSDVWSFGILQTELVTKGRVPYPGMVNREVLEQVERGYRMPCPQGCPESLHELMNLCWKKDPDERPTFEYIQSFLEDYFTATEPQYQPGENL
Chain of Gamma-aminobutyric acid type B receptor subunit 1 (Homo sapiens) (Q9UBS5 whole entry): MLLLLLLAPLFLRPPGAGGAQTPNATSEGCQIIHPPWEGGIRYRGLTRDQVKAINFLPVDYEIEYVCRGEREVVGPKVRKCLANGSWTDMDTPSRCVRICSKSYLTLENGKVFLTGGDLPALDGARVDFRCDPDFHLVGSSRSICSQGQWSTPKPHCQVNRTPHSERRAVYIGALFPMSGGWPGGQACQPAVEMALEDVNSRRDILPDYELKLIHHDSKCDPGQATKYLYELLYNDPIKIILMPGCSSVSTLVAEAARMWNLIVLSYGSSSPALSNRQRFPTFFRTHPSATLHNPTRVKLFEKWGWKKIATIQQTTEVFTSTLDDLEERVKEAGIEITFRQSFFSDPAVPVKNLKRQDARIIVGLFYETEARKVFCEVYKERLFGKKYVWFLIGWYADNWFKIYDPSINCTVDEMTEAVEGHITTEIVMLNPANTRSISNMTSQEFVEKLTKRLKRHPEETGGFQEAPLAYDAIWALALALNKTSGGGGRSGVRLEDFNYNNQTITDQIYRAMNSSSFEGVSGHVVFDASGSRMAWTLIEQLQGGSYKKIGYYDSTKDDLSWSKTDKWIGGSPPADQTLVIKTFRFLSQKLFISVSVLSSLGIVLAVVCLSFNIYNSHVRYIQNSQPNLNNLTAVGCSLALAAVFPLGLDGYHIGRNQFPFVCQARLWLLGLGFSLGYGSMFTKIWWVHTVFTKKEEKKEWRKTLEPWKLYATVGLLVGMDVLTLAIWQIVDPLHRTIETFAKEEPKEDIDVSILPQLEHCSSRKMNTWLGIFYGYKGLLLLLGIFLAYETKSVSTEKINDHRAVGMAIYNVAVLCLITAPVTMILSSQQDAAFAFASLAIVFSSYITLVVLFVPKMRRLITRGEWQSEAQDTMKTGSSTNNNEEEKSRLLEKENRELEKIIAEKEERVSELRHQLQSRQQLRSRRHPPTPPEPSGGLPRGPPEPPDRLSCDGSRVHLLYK

As to `C[C@@H]1CN(c2cc(-c3n[nH]c4ccc(OC5(C)CC5)cc34)ncn2)C[C@H](C)O1` [MLi-2], the inhibition in data set [1] was 6%; in data set [2] it was 4.5%; in data set [3], -4.26%; in [4], 1.77%; in data set [5], -0.999%; in data set [6], -1.94%. For the same compound, the inhibition in data set [7] was 0.838%; in data set [8], 5.77%; on Caspase-8 (Homo sapiens) it was 7%; in data set [10], 7%; in the data set listed under Homo sapiens it was 13%; in data set [11] it was 1%. In addition, the results for the inhibition in [12] and in data set [13] were -1% and -3%, respectively. Also, the inhibition at 60 min, 10 µM in data set [9] was 28% (not active).

For the compound `C[C@@H]1CN(c2cc(-c3nn(C)c4ccc(OC5(C)CC5)cc34)ncn2)C[C@H](C)O1` [MLi-2-NC], in [14], the IC50 was 5.44 µM (not active).

The inhibition is the drop in the measured response relative to a control, in per cent. As a reminder, the IC50 is the concentration that inhibits the measured activity by half. The low end stands for higher potency, the high end for lower potency.
